Target: LeuT (leucine transporter) (Aquifex aeolicus, UniProt O67854)
Assay: [3H]-Ala uptake in proteoliposomes
Type: biochemical
Conditions: Na+-dependent; 50 mM NaCl, 50 mM Tris-Mes pH 8.5, 22 °C; labelled compound

## C[C@H](N)C(=O)O [alanine]
  [3H]-Ala uptake in proteoliposomes: we measured Na^+-dependent alanine uptake in proteoliposomes for a large subset of mutants
